Measurements published in patent US7863315B2, “2-indolinone derivatives as selective histone deacetylase inhibitors” (Shenzhen Chipscreen Biosciences, Ltd., priority 2008, dated 2011).

Legend:
[1] = tested on: HDAC class I (p21 reporter gene); assay: HDAC subtype reporter gene assay, p21-promoter luciferase in HeLa cells; type: cell-based; settings: Homo sapiens, M-HeLa, read-out: % of SAHA Response for HDAC class I at 10 μM (p21 reporter gene), 24 hours
Method: (§1) Measurement of inhibition of HDAC subtypes activity in cells by reporter gene assay: HDAC subtype selectivity inhibition assay of tested compounds was carried out by several reporter gene assays experiments. Briefly, HeLa cells were seeded in 96-well plates the day before transfection to give a confluence of 50-80%. Cells were transfected with one of reporter gene plasmids containing a promoter sequences or response elements upstream of a luciferase gene construct using FuGene6 transfection reagent according to the manufacturer's instructions (Roche). The promoters or response elements including p21-promoter, gdf11-promoter, MEF-binding element (MEF2), Nur77-promoter were fused upstream to the luciferase gene reporter construct. For normalizing the transfection efficiency, a GFP expression plasmid was cotransfected. Cells were allowed to express protein for 24 hours followed by addition of individual compounds or the vehicle (DMSO). 24 hours later, the cells were harvested and the luciferase assays were performed using the luciferase assay kit according to the manufacturer's instructions (Promega). To normalize the data from the luciferase assays, GFP activity from transfected cells was measured in a microtiter-plate reading fluorimeter capable of excitation at a wavelength at 485 nm and detection of emitted light at 527 nm.

[2] = tested on: total HDAC enzyme (HeLa extract); assay: In vitro inhibition of total HDAC enzyme activity (HDAC Fluorimetric Assay/Drug Discovery Kit, BIOMOL); type: biochemical, human
Method: Measurement of in vitro inhibition of total HDAC enzyme activity:
The in vitro inhibition of total HDAC enzyme was determined by HDAC Fluorimetric Assay/Drug Discovery Kit (BIOMOL) according to manufacture's instruction. • 1. Add Assay buffer, diluted trichostatin A or test inhibitor to appropriate wells of the microtiter plate. Following table lists examples of various assay types and the additions required for each test.
• 2. Add diluted HeLa extract or other HDAC sample to all wells except those that are to be “No Enzyme Controls” (Blank). • 3. Allow diluted Fluor de LyS™ Substrate and the samples in the microtiter plate to equilibrate to assay temperature (25° C.). • 4. Initiate HDAC reactions by adding diluted substrate (25 μl) to each well and mixing thoroughly. • 5. Allow HDAC reactions to proceed for desired length of time and then stop them by addition of Fluor de Lys™ Developer (50 μl). Incubate plate at room temperature (25° C.) for 10-15 min. • 6. Read samples in a microtiter-plate reading fluorimeter capable of excitation at a wavelength in the range 350-380 nm and detection of emitted light in the range 440-460 nm.

[3] = tested on: HDAC4/5 (MEF2 reporter gene); assay: HDAC subtype reporter gene assay, MEF-binding element (MEF2) luciferase in HeLa cells; type: cell-based; settings: Homo sapiens, M-HeLa, read-out: % of SAHA Response for HDAC4/5 at 10 μM (MEF2 reporter gene), 24 hours
Method: as §1

[4] = tested on: lysine acetylation; assay: ELISA assay of acetylation of lysine in HeLa cells; type: cell-based; settings: Homo sapiens, M-HeLa, 24 hours
Description: Measurement of acetylation activity in cells on substrates:
ELISA Assay of Acetylation of Lysine
This assay is used to measure in vivo inhibition of HDAC6 in a cytoblot assay.
Materials and Reagent: • 1. 24-well tissue culture • 2. DMEM Medium containing 10% FBS • 3. 96-well white plate • 4. HeLa cell line • 5. M-PER Mammalian Protein Extraction Reagent (Pierce) • 6. Bradford assay reagent • 7. Acetylated-lysine polyclonal Antibody (Cell Signaling) • 8. HRP-labeled anti-rabbit IgG (Upstate) • 9. Coating Buffer: 15 mM Na2CO3, 35 mM NaHCO3 (pH 9.6) • 10. 10×PBS: 0.58M Na2HPO4, 0.17M NaH2PO4, 0.68M NaCl (pH 7.4) • 11. Wash Buffer:1×PBS containing 0.05% Tween-20 (PBST) • 12. Blocking Buffer:10 mg/ml bocine serum albumin (BSA) in PBS • 13. Antibody Dilution Buffer: 5 mg/ml BSA in PBST • 14. Enhanced chemiluminescence (ECL) (Amersham)
Procedure for performing the assay in 96-well plate: • 1. HeLa cells were seeded at a density of 60000 cells/500 μl/well in 24-well plate and incubated at 37° C. for 24 hours. • 2. Compounds were added and incubated for 24 hours at 37° C. • 3. Culture medium was removed, then washes the cells twice with ice-cold PBS. • 4. Add 100 μl/well of Protein Extraction Reagent and gently shake the mixture for 5 minutes. • 5. Collect the lysate to a 96-well plate respectively. Determine the concentration of protein by Bradford assay. • 6. Coat the wells of a 96-well white plate with 100 μl/well of 2.5 μg whole cell protein in Coating Buffer by incubating overnight at 4° C. • 7. Discard the uncoated proteins and wash the coated wells three times with 200 μl/well of PBST. • 8. Block coated wells by incubating the plate with 200 μl/well of Blocking Buffer for 1 hour at 37° C. • 9. Wells were aspirated and washed three times with 200 μl/well of PBST. • 10. After aspirating, 50 μl/well of Antibody Dilution Buffer containing acetylated-lysine polyclonal antibody (1:1000) were added to each well and incubated for 2 hour at 37° C. • 11. Wells were aspirated and washed three times with 200 μl/well of PBST. • 12. 50 μl/well of Antibody Dilution Buffer containing HRP-labeled anti-rabbit IgG (1:2000) were added to each well and incubated for 2 hour at 37° C. • 13. Wells were aspirated and washed three times with 200 μl/well of PBST. • 14. Wells were washed three times with 200 μl/well of purified water. • 15. Add 50 μl/well of ECL mixture, then read the plates on the plate reader.

## Cc1[nH]c(/C=N/N=C2\C(=O)Nc3ccc(F)cc32)c(C)c1C(=O)NCCCCC(=O)Nc1ccccc1N [Example 7, 5-(5-(((5-fluoro-2-oxoindolin-3-ylidene)hydrazono)methyl)-2,4-dimethyl-1H-pyrrole-3-carboxamido)-N-(2-aminophenyl)pentanamide]
[1]
  Emax at 10 µM: 11%
[2]
  % of Inhibition on Total HDAC Enzyme at 30 μM: 2%
[3]
  Emax at 10 µM: 23%
[4]
  fold induction at 10 µM: 1.58

## Cc1[nH]c(/C=N/N=C2\C(=O)Nc3ccc(F)cc32)c(C)c1C(=O)NCCCCC(=O)Nc1ccc(F)cc1N [Example 8, 5-(5-(((5-fluoro-2-oxoindolin-3-ylidene)hydrazono)methyl)-2,4-dimethyl-1H-pyrrole-3-carboxamido)-N-(2-amino-4-fluorophenyl)pentanamide]
[1]
  Emax at 10 µM: 7%
[2]
  % of Inhibition on Total HDAC Enzyme at 30 μM: −26%
[3]
  Emax at 10 µM: 23%
[4]
  fold induction at 10 µM: 2.01

## Cc1[nH]c(/C=N/N=C2\C(=O)Nc3ccc(F)cc32)c(C)c1C(=O)NCCCCCC(=O)NO [Example 11, 6-(5-(((5-fluoro-2-oxoindolin-3-ylidene)hydrazono)methyl)-2,4-dimethyl-1H-pyrrole-3-carboxamido)-N-hydroxyhexanamide]
[1]
  Emax at 10 µM: 52%
[2]
  % of Inhibition on Total HDAC Enzyme at 30 μM: 86%
[3]
  Emax at 10 µM: 27%
[4]
  fold induction at 10 µM: 1.87

## Cc1[nH]c(/C=N/N=C2\C(=O)Nc3ccc(F)cc32)c(C)c1C(=O)NCCCCCC(=O)Nc1ccc(F)cc1N [Example 12, 6-(5-(((5-fluoro-2-oxoindolin-3-ylidene)hydrazono)methyl)-2,4-dimethyl-1H-pyrrole-3-carboxamido)-N-(2-amino-4-fluorophenyl)hexanamide]
[1]
  Emax at 10 µM: 9%
[2]
  % of Inhibition on Total HDAC Enzyme at 30 μM: 14%
[3]
  Emax at 10 µM: 35%
[4]
  fold induction at 10 µM: 1.84

## Cc1[nH]c(/C=N/N=C2\C(=O)Nc3ccc(F)cc32)c(C)c1C(=O)NCCCCCC(=O)Nc1ccccc1N [Example 13, 6-(5-(((5-fluoro-2-oxoindolin-3-ylidene)hydrazono)methyl)-2,4-dimethyl-1H-pyrrole-3-carboxamido)-N-(2-aminophenyl)hexanamide]
[1]
  Emax at 10 µM: 18%
[2]
  % of Inhibition on Total HDAC Enzyme at 30 μM: 30%
[3]
  Emax at 10 µM: 18%
[4]
  fold induction at 10 µM: 3.08

## O=C(CCCCCNC(=O)c1ccc(/C=N/N=C2\C(=O)Nc3ccc(F)cc32)cc1)NO [Example 31, 6-(4-(((5-fluoro-2-oxoindolin-3-ylidene)hydrazono)methyl)benzamido)-N-hydroxyhexanamide]
[1]
  Emax at 10 µM: 39%
[2]
  % of Inhibition on Total HDAC Enzyme at 30 μM: 89%
[3]
  Emax at 10 µM: 30%
[4]
  fold induction at 10 µM: 1.67

## Nc1ccccc1NC(=O)CCCCCNC(=O)c1ccc(/C=N/N=C2\C(=O)Nc3ccc(F)cc32)cc1 [Example 32, 6-(4-(((5-fluoro-2-oxoindolin-3-ylidene)hydrazono)methyl)benzamido)-N-(2-aminophenyl)hexanamide]
[1]
  Emax at 10 µM: 17%
[2]
  % of Inhibition on Total HDAC Enzyme at 30 μM: 20%
[3]
  Emax at 10 µM: 28%
[4]
  fold induction at 10 µM: 1.32

## Nc1ccccc1NC(=O)CCCCCCCNC(=O)c1ccc(/C=N/N=C2\C(=O)Nc3ccc(F)cc32)cc1 [Example 35, 8-(4-(((5-fluoro-2-oxoindolin-3-ylidene)hydrazono)methyl)benzamido)-N-(2-aminophenyl)octanamide]
[1]
  Emax at 10 µM: 56%
[2]
  % of Inhibition on Total HDAC Enzyme at 30 μM: 22%
[3]
  Emax at 10 µM: 46%
[4]
  fold induction at 10 µM: 1.04

## O=C(CCCCCNC(=O)c1ccc(/C=C2\C(=O)Nc3ccc(F)cc32)cc1)NO [Example 41, 6-(4-((5-fluoro-2-oxoindolin-3-ylidene)methyl)benzamido)-N-hydroxyhexanamide]
[1]
  Emax at 10 µM: 13%
[2]
  % of Inhibition on Total HDAC Enzyme at 30 μM: 96%
[3]
  Emax at 10 µM: 21%
[4]
  fold induction at 10 µM: 1.6

## Nc1cc(F)ccc1NC(=O)CCCCCNC(=O)c1cccc(/C=C2\C(=O)Nc3ccc(F)cc32)c1 [Example 45, 6-(3-((5-fluoro-2-oxoindolin-3-ylidene)methyl)benzamido)-N-(2-amino-4-fluorophenyl)hexanamide]
[1]
  Emax at 10 µM: 19%
[2]
  % of Inhibition on Total HDAC Enzyme at 30 μM: 30%
[3]
  Emax at 10 µM: 44%
[4]
  fold induction at 10 µM: 1.17

## O=C(CCCCCNC(=O)c1cccc(/C=C2\C(=O)Nc3ccc(F)cc32)c1)NO [Example 46, 6-(3-((5-fluoro-2-oxoindolin-3-ylidene)methyl)benzamido)-N-hydroxyhexanamide]
[1]
  Emax at 10 µM: 15%
[2]
  % of Inhibition on Total HDAC Enzyme at 30 μM: 95%
[3]
  Emax at 10 µM: 27%
[4]
  fold induction at 10 µM: 1.16

## Nc1ccccc1NC(=O)CCCCNC(=O)c1cccc(/C=C2\C(=O)Nc3ccc(F)cc32)c1 [Example 49, 5-(3-((5-fluoro-2-oxoindolin-3-ylidene)methyl)benzamido)-N-(2-aminophenyl)pentanamide]
[1]
  Emax at 10 µM: 18%
[2]
  % of Inhibition on Total HDAC Enzyme at 30 μM: 22%
[3]
  Emax at 10 µM: 32%
[4]
  fold induction at 10 µM: 1.02

## O=C(CCCCNC(=O)c1cccc(/C=C2\C(=O)Nc3ccc(F)cc32)c1)NO [Example 51, 5-(3-((5-fluoro-2-oxoindolin-3-ylidene)methyl)benzamido)-N-hydroxypentanamide]
[1]
  Emax at 10 µM: 18%
[2]
  % of Inhibition on Total HDAC Enzyme at 30 μM: 86%
[3]
  Emax at 10 µM: 33%
[4]
  fold induction at 10 µM: 1.31

## Nc1cc(F)ccc1NC(=O)CCCCCCCNC(=O)c1cccc(/C=C2\C(=O)Nc3ccc(F)cc32)c1 [Example 55, 8-(3-((5-fluoro-2-oxoindolin-3-ylidene)methyl)benzamido)-N-(2-amino-4-fluorophenyl)octanamide]
[1]
  Emax at 10 µM: 10%
[2]
  % of Inhibition on Total HDAC Enzyme at 30 μM: 14%
[3]
  Emax at 10 µM: 36%
[4]
  fold induction at 10 µM: 1.12
